# Tested on: human liver cytosol stability, half-life
# Assay: NCATS Human Liver Cytosol Stability Profiling
# Conditions: higher = more stable
# Description: Assay submitter (PI): Pranav Shah Ph.D.
# NIH Center for Advancing Translational Sciences
# Over the last few decades, chemists have become skilled at designing compounds that avoid cytochrome P (CYP) 450 mediated metabolism. Typical screening assays are performed in liver microsomal fractions and it is possible to overlook the contribution of cytosolic enzymes until much later in the drug discovery process. Few data exist on cytosolic enzyme-mediated metabolism and no reliable tools are available to chemists to help design away from such liabilities. In this study, we screened 1450 compounds for liver cytosol-mediated metabolic stability and extracted transformation rules that might help medicinal chemists in optimizing compounds with these liabilities. […] Matched molecular pairs analysis was performed in conjunction with qualitative-structure activity relationship modeling to identify chemical structure transformations affecting cytosolic stability. The transformation rules were prospectively validated on the test set. In addition, selected rules were validated on a diverse chemical library and the resulting pairs were experimentally tested to confirm whether the identified transformations could be generalized. The validation results, comprising nearly 250 library compounds and corresponding half-life data, are made publicly available. The datasets were also used to generate in silico classification models, based on different molecular descriptors and machine learning methods, to predict cytosol-mediated liabilities. To the best of our knowledge, this is the first systematic in silico effort to address cytosolic enzyme-mediated liabilities (Shah 2020).
# Shah, P., Siramshetty, V.B., Zakharov, A.V. et al. Predicting liver cytosol stability of small molecules. J Cheminform 12, 21 (2020). https://doi.org/10.1186/s13321-020-00426-7
# Compounds are classified as unstable (t 1/2 < 30 min) or stable (t 1/2 > 30 min).
# 1. Shah, P. et al. An Automated High-Throughput Metabolic Stability Assay Using an Integrated High-Resolution Accurate Mass Method and Automated Data Analysis Software. Drug Metab Dispos 44, 1653-1661 (2016). PMID 27417180
row,SMILES,half-life [h]
1,Cc1cc(OC2CN(Cc3ccc(C#N)cc3)C2)ccc1F,0.73
2,COc1cncc(Nc2ncc(-c3cccc(F)c3)c3c2OCC3)c1,1.34
3,COCCNc1nc(N)nc2c1CCN(C(=O)c1cscn1)CC2,> 2
4,CC1(c2ccccc2)N(Cc2ccccc2)C(=O)OC12CCN(Cc1cccc(C#N)c1)CC2 (stereo not given),> 2
5,N#Cc1ccccc1CN1CCC2(CC1)CC(O)CCO2 (stereo not given),1.34
6,COc1ccc(CN2CC(Oc3ccc(F)c(C)c3)C2)cc1,0.36
7,N#Cc1ccc(CN2CCC3(C2)NC(=O)c2ccccc2O3)cc1 (stereo not given),> 2
8,CN1CCC(OC2CCN(C(=O)c3cccc(F)c3)CC2)CC1,> 2
9,O=C1COCCN1c1cc(-c2cccc(F)c2)cn2cncc12,> 2
10,COc1ccc(CN2CCC(N3CCOC3=O)CC2)cc1,> 2
11,CN(Cc1ccccc1)C1CCOc2ccccc21 (stereo not given),0.127
12,Cc1ccccc1-c1[nH]nc2ncc(-c3ccccc3C#N)nc12,> 2
13,COc1ccc(-c2[nH]nc3ncc(-c4cccc(F)c4)nc23)c(C)c1,1.26
14,COc1ccc(CN2CCC(N3Cc4cccn4C3=O)CC2)cc1,> 2
15,O=C(c1cccs1)N1CCC(Oc2cccc(F)c2)C1 (stereo not given),0.29
16,CCOc1cc(=O)n2c(c1C(=O)Nc1ccc(S(N)(=O)=O)cc1)CCCC2,> 2
17,COCCNC(=O)c1nc2sccn2c1-c1cccc(C#N)c1,> 2
18,N#Cc1ccc(CN2CCC(N3Cc4cccn4C3=O)CC2)cc1,> 2
19,N#Cc1cccc(CN2CCOC[C@H]2c2ncc(-c3ccc(F)cc3)[nH]2)c1,1.58
20,COc1ccc(CN2CCC3(C2)NC(=O)c2ccccc2O3)cc1 (stereo not given),> 2
21,N#Cc1cccc(-c2cn3c(n2)N(C(=O)c2ccoc2)CCC3)c1,> 2
22,CN(Cc1cccc(F)c1)C1CCOc2ccccc21 (stereo not given),0.143
23,O=C(N1CCN([S+](=O)([O-])c2ccccc2)CC1)N1CC2CC(C1)[C@H]1CCCC(=O)N1C2 (stereo not given in full),> 2
24,N#Cc1cccc(-c2cn3c(n2)N(C(=O)c2cccs2)CCC3)c1,> 2
25,COCCOC1CCN(C(=O)Nc2cccc(F)c2)CC1,> 2
26,CCN1CCN(C(=O)c2nc3sccn3c2-c2cccc(C#N)c2)CC1,> 2
27,Cc1noc(-c2cn(C3CCN(C(=O)c4ccccc4)C3)nn2)n1 (stereo not given),> 2

row,SMILES,half-life [h]
1,Cc1ccccc1-c1[nH]nc2ncc(-c3cccc(F)c3)nc12,0.817
2,COc1ccc(C(=O)N2C[C@@H](CO)[C@H](N(C)C)C2)cc1,> 2
3,COc1cccc(-c2cn3c(n2)N(C(=O)c2cccs2)CCC3)c1,> 2
4,COc1ccc(CN2CCC3(COc4ccccc4C(=O)N3)C2)cc1 (stereo not given),0.578
5,CN1CCOC2(CCN(Cc3cccc(C#N)c3)CC2)C1=O,> 2
6,O=c1cc(N2CCOCC2)oc2c(-c3cccc(F)c3)nccc12,> 2
7,CNC(=O)[C@@H]1CN(C(=O)c2cccc(C#N)c2)C[C@H]1COC,1.44
8,O=C(O)c1ccc(-c2ccc(N3CCCCCC3)nc2)cc1,> 2
9,CN(CC1CCOC1)C(=O)Nc1cccc(F)c1 (stereo not given),> 2
10,O=C(Nc1ncc(-c2cccc(F)c2)c2c1OCC2)c1ccncc1,> 2
11,Cc1cc2cc(-c3c(C)noc3C)nc(Nc3ccccc3)c2o1,0.593
12,CN1c2cc(C(=O)Nc3ccc(C#N)cc3)ccc2C(=O)N2CCCCC21 (stereo not given),> 2
13,O=C(O)c1ccc2c(c1)n(Cc1cccc(F)c1)c(=O)c1ccnn12,> 2
14,CN1CCN(C(=O)c2cc(-c3cccnc3)nc3c2cnn3C)CC1,> 2
15,O=C(c1ccoc1)N1CCC(Oc2cccc(F)c2)C1 (stereo not given),1.18
16,O=c1c2nc(Nc3cccc(F)c3)ccc2ncn1-c1cccnc1,1.61
17,COc1ccc(CN2CCC(N3CCNC3=O)CC2)cc1,> 2
18,N#Cc1ccc(CN2CC(Oc3ccc(F)c(F)c3)C2)cc1,1.19
19,Cc1ccsc1-c1[nH]nc2ncc(-c3ccccc3)nc12,0.308
20,Cc1nn2c(c1-c1ccccc1Oc1ccccc1)N(Cc1cccc(C#N)c1)CCC2,> 2
21,Cc1ccc(-c2noc([C@@H]3Cc4nc[nH]c4CN3Cc3cccc(C#N)c3)n2)cc1,1.06
22,COc1ccc(CN2CC(Oc3ccc(OC)cc3)C2)cc1,> 2
23,N#Cc1ccc(CN2CCC3(CC2)CC(=O)c2ccccc2O3)cc1,> 2
24,Fc1cccc(Nc2ncc(-c3cncnc3)c3c2OCC3)c1,> 2
25,CCN1CCN(C(=O)c2cc(-c3ccc(F)cc3)nc3c2cnn3C)CC1,> 2
26,COc1cccc(-c2c(C(=O)N3CCCCC3)nc3sccn23)c1,1.9
27,COc1ccc(C(=O)N2CCCOCCNC(=O)CC2)cc1,1.17

row,SMILES,half-life [h]
1,CN1CCC(OC2CCN(C(=O)c3ccccc3)CC2)CC1,> 2
2,COc1ccc(C(=O)N2CCC3(CCC3OC)CC2)cc1 (stereo not given),1.17
3,N#Cc1cccc(CN2CC(COc3ccccc3)C3(C2)CN(c2ccccc2)C3)c1 (stereo not given),0.693
4,CN(C)[C@@H]1CN(C(=O)c2ccc(C#N)cc2)C[C@H]1CO,> 2
5,CCN1CCN(C(=O)C2Cn3cccc3C(=O)N2CC(C)C)CC1 (stereo not given),> 2
6,CC(=O)N1CCC(Cc2ccc(C(=O)NC3CC3)cc2)CC1,1.33
7,N#Cc1cccc(CN2CC[C@H](c3nc4ccccc4[nH]3)C2)c1,> 2
8,COc1ccccc1CN1CCC2(CC1)CC(O)CCO2 (stereo not given),> 2
9,COc1ccc(CN2CCC3(CC2)CC(=O)c2ccccc2O3)cc1,> 2
10,COc1ccc(CN2CC(Oc3ccc(F)cc3F)C2)cc1,0.605
11,O=C(c1ccc(-c2ncc3cnc(-c4cccc(F)c4)cn23)cc1)N1CCc2cccnc21,0.288
12,Fc1cccc(-c2cnc([C@@H]3COCCN3Cc3cnc[nH]3)[nH]2)c1,0.988
13,COc1cccc(CN2CCOC[C@H](O)C2)c1,0.47
14,CC(C)CN1C(=O)c2cccn2CC1C(=O)N1CCN(C)CC1 (stereo not given),1.79
15,COc1ccccc1-c1[nH]nc2ncc(-c3cccc(F)c3)nc12,> 2
16,N#Cc1ccc(CN2C[C@@H](CO)[C@H](c3ccncc3)C2)cc1,1.78
17,N#Cc1ccc(CN2CCC3(COc4ccccc4C(=O)N3)C2)cc1 (stereo not given),0.64
18,COc1cccc(-c2cn3c(n2)N(C(=O)c2ccoc2)CCC3)c1,1.86
19,Fc1cccc(-c2noc(-c3nc(-c4ccncc4)no3)n2)c1,0.44
20,N#Cc1ccc(CN2CCC(N3CCOC3=O)CC2)cc1,> 2
21,COc1cccc(CN2CC[C@H](c3nnc(-c4ccco4)o3)C2)c1,1.97
22,COc1ccc(OC2CN(Cc3ccc(C#N)cc3)C2)cc1,> 2
23,Cc1nnc([C@H]2CCN(Cc3ccc(C#N)cc3)C2)o1,> 2
24,O=C(Nc1cnc(-c2ccccc2)nc1)c1cccc(F)c1,0.867
25,C[C@@]1(O)CCN(Cc2ccc(C#N)cc2)C[C@H]1N1CCCC1,> 2
26,CCOc1cc(=O)n2c(c1C(=O)Nc1ccc(C#N)cc1)CCCC2,1.69
27,CCN1CCN(C(=O)Cc2cccn2-c2ccc(F)cc2)CC1,> 2

row,SMILES,half-life [h]
1,CCOCCOC1CCN(C(=O)Nc2cccc(F)c2)CC1,> 2
2,COc1ccc(CN2CC(Oc3ccc(F)c(F)c3)C2)cc1,0.5
3,CC(C)(C)c1coc([C@@H]2COCCN2Cc2cccc(C#N)c2)n1,0.943
4,COc1cccc(-c2c(C(=O)N3CCOCC3)nc3sccn23)c1,> 2
5,O=C(c1ccoc1)N1CCC(Oc2ccccc2)C1 (stereo not given),> 2
6,O=C(O)c1ccc(CN2CCOC[C@H]2c2ncc(-c3ccc(F)cc3)[nH]2)cc1,> 2
7,CC1(c2ccccc2)N(Cc2ccccc2)C(=O)OC12CCN(Cc1ccc(C(=O)O)cc1)CC2 (stereo not given),> 2
8,Cc1noc(C)c1-c1cc(-c2cccc(F)c2)cn2cncc12,1.5
9,O=C(c1ccsc1)N1CCC(Oc2ccccc2)C1 (stereo not given),0.667
10,O=C(c1cccnc1)N1CCC(Oc2cccc(F)c2)C1 (stereo not given),> 2
11,CCN1CCN(C(=O)c2nc3sccn3c2-c2cccc(OC)c2)CC1,> 2
12,N#Cc1ccc(CN2CCC(N3CCNC3=O)CC2)cc1,1.55
13,N#Cc1ccc(C(=O)N2CCCOCCNC(=O)CC2)cc1,> 2
14,COC(=O)[C@@H]1Cc2ncn(C)c2CN1C(=O)c1ccc(C#N)cc1,> 2
15,O=C(c1cccs1)N1CCC(Oc2ccccc2)C1 (stereo not given),0.638
16,COCCNC(=O)c1nc2sccn2c1-c1cccc(OC)c1,> 2
17,Cn1ccc(NC(=O)c2ccc(-c3ncc4cnc(-c5cccc(F)c5)cn34)cc2)n1,0.553
18,O=c1c2nc(Nc3cccc(F)c3)ccc2ncn1-c1ccccc1,1.57
19,N#Cc1cccc(-c2c(C(=O)NC3CC3)nc3sccn23)c1,1.59
20,CC(C)(C)c1coc([C@@H]2COCCN2Cc2ccc(C(=O)O)cc2)n1,1.88
21,COc1ccc(CN2CC[C@@](C)(O)[C@H](N3CCCC3)C2)cc1,> 2
22,N#Cc1cccc(-c2c(C(=O)N3CCCCC3)nc3sccn23)c1,1.72
23,COc1cccc(-c2c(C(=O)NC3CC3)nc3sccn23)c1,> 2
24,O=C(c1cccc(F)c1)N1CCC(Oc2cccnc2)C1 (stereo not given),> 2
